IC50 data for 10 compounds are collected here from patent publication US20260028365A1 (BIOGEN MA INC., priority 2022, published 2026).

Structures are written as SMILES. Where two headings read alike, the source gives them in different places.

The target of assay [1] is JH2 domain of human Tyk2 (Homo sapiens (Human), UniProt P29597). The assay can be described thus: JH2 Biochemical Assay (TR-FRET probe displacement). Type of assay: binding.
The target in assay [2] is Tyk2 (Homo sapiens (Human), UniProt P29597). Briefly: pSTAT4 Cell Assay (MSD, NK92 cells). Format: cell-based.
Chain of Tyk2 (P29597 whole entry, the tested form may be a part): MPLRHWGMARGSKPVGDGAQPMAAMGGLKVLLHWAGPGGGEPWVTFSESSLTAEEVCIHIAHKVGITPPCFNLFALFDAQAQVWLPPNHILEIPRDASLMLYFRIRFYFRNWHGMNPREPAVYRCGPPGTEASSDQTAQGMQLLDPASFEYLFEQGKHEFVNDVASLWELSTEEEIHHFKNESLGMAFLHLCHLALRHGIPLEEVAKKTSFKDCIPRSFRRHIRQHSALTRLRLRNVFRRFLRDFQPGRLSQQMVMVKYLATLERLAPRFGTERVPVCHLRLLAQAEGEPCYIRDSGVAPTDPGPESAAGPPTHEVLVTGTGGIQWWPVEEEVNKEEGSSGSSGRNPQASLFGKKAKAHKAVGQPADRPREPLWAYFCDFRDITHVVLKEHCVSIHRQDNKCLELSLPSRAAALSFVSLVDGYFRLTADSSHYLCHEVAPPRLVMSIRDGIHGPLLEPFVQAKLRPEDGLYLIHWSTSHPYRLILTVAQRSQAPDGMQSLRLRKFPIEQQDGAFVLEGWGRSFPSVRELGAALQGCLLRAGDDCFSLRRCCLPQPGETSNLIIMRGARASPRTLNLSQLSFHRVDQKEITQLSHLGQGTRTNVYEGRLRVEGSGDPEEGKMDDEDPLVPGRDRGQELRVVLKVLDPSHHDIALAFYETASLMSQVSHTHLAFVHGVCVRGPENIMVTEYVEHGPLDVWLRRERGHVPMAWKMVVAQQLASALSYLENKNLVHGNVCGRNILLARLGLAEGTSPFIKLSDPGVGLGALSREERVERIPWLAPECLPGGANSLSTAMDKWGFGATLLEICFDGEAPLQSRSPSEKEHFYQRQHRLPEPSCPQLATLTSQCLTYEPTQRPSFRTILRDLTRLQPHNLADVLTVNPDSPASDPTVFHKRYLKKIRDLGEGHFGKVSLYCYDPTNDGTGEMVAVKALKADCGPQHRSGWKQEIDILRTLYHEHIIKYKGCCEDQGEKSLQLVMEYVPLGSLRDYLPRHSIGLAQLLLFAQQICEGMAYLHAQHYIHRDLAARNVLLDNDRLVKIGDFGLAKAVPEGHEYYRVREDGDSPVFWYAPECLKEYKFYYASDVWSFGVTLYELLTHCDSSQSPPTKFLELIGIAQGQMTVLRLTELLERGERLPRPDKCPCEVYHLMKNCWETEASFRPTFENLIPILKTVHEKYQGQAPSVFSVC
[3] abbreviates: TR-FRET probe displacement, JH2 domain.
Setting [4] is: JH2 domain of human Tyk2, TR-FRET probe displacement.
Setting [5] is: TR-FRET probe displacement, JH2 domain of human Tyk2.

Chain of JH2 domain of human Tyk2 (P29597 575-876): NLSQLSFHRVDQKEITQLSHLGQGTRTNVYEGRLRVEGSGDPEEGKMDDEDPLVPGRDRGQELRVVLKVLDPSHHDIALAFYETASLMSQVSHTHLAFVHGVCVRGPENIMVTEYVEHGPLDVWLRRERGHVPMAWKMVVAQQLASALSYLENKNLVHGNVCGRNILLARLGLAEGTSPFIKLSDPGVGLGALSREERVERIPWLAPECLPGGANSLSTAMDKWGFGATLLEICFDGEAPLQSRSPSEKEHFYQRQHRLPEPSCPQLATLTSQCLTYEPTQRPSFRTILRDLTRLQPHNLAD

By IC50 is commonly meant the point on the concentration scale where inhibition reaches its midpoint. A high value points to a need for much substance. With `COC(C)(C)c1cnc(-c2cnc(NC(C)=O)cc2Nc2ccnc(C(C)(F)F)n2)cn1` [Example 896, N-(4-((2-(1,1-difluoroethyl)pyrimidin-4-yl)amino)-5-(5-(2-methoxypropan-2-yl)pyrazin-2-yl)pyridin-2-yl)acetamide], the IC50 was at most 10 nM in assay [1] (setting [3]) and 10 to 100 nM in assay [2].
In the case of `CC(=O)Nc1cc(Nc2cc(C)nc(C(C)(F)F)n2)c(-c2nc(C)co2)cn1` [Example 592, N-(4-((2-(1,1-difluoroethyl)-6-methylpyrimidin-4-yl)amino)-5-(4-methyloxazol-2-yl)pyridin-2-yl)acetamide], the figures for the IC50 in assay [1] (setting [4]) and in assay [2] (MSD) were at most 10 nM and 10 to 100 nM, respectively.
The corresponding values for `COCCn1ncc(-c2cnc(NC(C)=O)cc2Nc2cc(OC3CC3)nc(C(C)(F)F)n2)n1` [Example 587, N-(4-((6-cyclopropoxy-2-(1,1-difluoroethyl)pyrimidin-4-yl)amino)-5-(2-(2-methoxyethyl)-2H-1,2,3-triazol-4-yl)pyridin-2-yl)acetamide] are at most 10 nM and at most 10 nM.
As to `CC(=O)Nc1cc(Nc2cccc(C(C)(F)F)n2)c(OCCN2CCCC2)cn1` [Example 64, N-(4-((6-(1,1-difluoroethyl)pyridin-2-yl)amino)-5-(2-(pyrrolidin-1-yl)ethoxy)pyridin-2-yl)acetamide], the IC50 is at most 10 nM in assay [1] (setting [5]) and 10 to 100 nM in assay [2] (MSD).
For the compound `CCc1cc(Nc2cc(NC(C)=O)ncc2-c2cn(CCOC)nn2)nc(C(C)(F)F)n1` [Example 262, N-(4-((2-(1,1-difluoroethyl)-6-ethylpyrimidin-4-yl)amino)-5-(1-(2-methoxyethyl)-1H-1,2,3-triazol-4-yl)pyridin-2-yl)acetamide], the IC50 in assay [1] (setting [5]) and in assay [2] (MSD) was at most 10 nM each time.
Consider `COCCOc1cnc(NC(C)=O)cc1Nc1cc(-c2cnn(C(C)C)c2)nc(C(C)(F)F)n1` [Example 366, N-(4-((2-(1,1-difluoroethyl)-6-(1-isopropyl-1H-pyrazol-4-yl)pyrimidin-4-yl)amino)-5-(2-methoxyethoxy)pyridin-2-yl)acetamide], for which the half-inhibitory concentration (IC50) in assay [1] (setting [5]) and in assay [2] (MSD) was at most 10 nM throughout.
Consider `CC(=O)Nc1cc(Nc2cc(OC3CC3)nc(C(C)(F)F)n2)c(O[C@H]2C[C@H](F)C2)cn1` [Example 352, N-(4-((6-cyclopropoxy-2-(1,1-difluoroethyl)pyrimidin-4-yl)amino)-5-((1r,3r)-3-fluorocyclobutoxy)pyridin-2-yl)acetamide], for which the IC50 was at most 10 nM in assay [1] (setting [5]) and 10 to 100 nM in assay [2] (MSD).
On the same counts, the results for `CC(=O)Nc1cc(Nc2cc(C)nc(C(C)(F)F)n2)c(-c2ccn(CC(C)(C)O)n2)cn1` [Example 228, N-(4-((2-(1,1-difluoroethyl)-6-methylpyrimidin-4-yl)amino)-5-(1-(2-hydroxy-2-methylpropyl)-1H-pyrazol-3-yl)pyridin-2-yl)acetamide] are at most 10 nM and at most 10 nM.
Take `CNC(=O)Nc1cc(Nc2ccnc(C(C)(F)F)n2)c(-c2cc3n(n2)CCN(C)C3)cn1` [Example 794, 1-(4-((2-(1,1-difluoroethyl)pyrimidin-4-yl)amino)-5-(5-methyl-4,5,6,7-tetrahydropyrazolo[1,5-a]pyrazin-2-yl)pyridin-2-yl)-3-methylurea]: the half-maximal inhibitory concentration (IC50) in assay [1] (setting [3]) and in assay [2] was at most 10 nM each time.
`CC(=O)Nc1cc(Nc2ccnc(C(C)(F)F)n2)c(-c2ccc(CN3CC4(CCOC4)C3)cn2)cn1` [Example 889, N-(5-((6-oxa-2-azaspiro[3.4]octan-2-yl)methyl)-4′-((2-(1,1-difluoroethyl)pyrimidin-4-yl)amino)-[2,3′-bipyridin]-6′-yl)acetamide]: the IC50 in assay [1] (setting [3]) and in assay [2] was at most 10 nM in each case.
